We go through 16 molecules from patent US20200071316A1, “ACTIVATORS OF THE RETINOIC ACID INDUCIBLE GENE "RIG-I" PATHWAY AND METHODS OF USE THEREOF” (Kineta Immuno-Oncology LLC, priority 2018, published 2020).

Experiment [1] concerns IRF3 signaling pathway (IRF-inducible ISG54 promotor) in THP1-Lucia ISG cells. The experiment can be described thus: THP1-Lucia ISG reporter assay: induction of IRF3-dependent luciferase activity. To be noted: Homo sapiens, PMA-differentiated cells, 18 h after stimulation, read-out: THP1 ISG: fold increase of IRF3-dependent luciferase activity over background; for fold induction at 5 µM: 5 μM compound (**); for fold induction at 10 µM: 10 μM compound. In kind it is cell-based. The method, boiled down: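 PMA-differentiated (100 ng/ml) reporter cells, parental and IRF3−/−, stimulated with compounds at 5–20 μM (mostly 10 μM). Secreted luciferase measured 18 h later. Scored as fold increase over untreated background in bands from "−" (<2.4-fold) to "+++++" (≥40-fold).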

Experiment [2] relates to THP1-Lucia ISG IRF3 −/− cells. The experiment can be described thus: IRF3-deficient THP1-Lucia ISG IRF3 −/− reporter assay (counter-screen). In kind it is cell-based. The note with it: Homo sapiens, 18 h after stimulation, read-out: THP1 ISG IRF3 −/−: fold increase of luciferase activity over background; for fold induction at 5 µM: 5 μM compound (**); for fold induction at 10 µM: 10 μM compound. Summed up: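 PMA-differentiated (100 ng/ml) reporter cells carrying ISRE/ISG54 minimal promoter-driven secreted luciferase were stimulated with compounds at 5–20 μM (mostly 10 μM). Luciferase measured 18 h later and expressed as fold increase over untreated background, binned from "−" (<2.4-fold) to "+++++" (≥40-fold).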

Experiment [3] concerns CXCL10 secretion by CT26 cells. Put plainly: RIG-I dependent CXCL10 secretion by CT26 colon carcinoma cells (ELISA). In kind it is cell-based, murine. To be noted: 24 h. Summed up:
(§1)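 Murine CT26 colon carcinoma cells, and CRISPR-generated RIG-I knockout CT26 cells, were seeded at 1×10^4 cells/well and grown 24 h at 37 °C, 5% CO2, then treated with compounds at 5 to 20 μM. CXCL10 in supernatants was measured by ELISA 24 h after stimulation.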

The test system of experiment [4] is RIG-I deficient CT26 RIG-1−/− cells. Put plainly: CXCL10 secretion in RIG-I deficient CT26 RIG-1−/− cells (ELISA). The note with it: 24 h. In kind it is cell-based, murine. The method, boiled down: as §1

Marks after values point to notes of the source that are not given here.

For the molecule `COC(=O)c1ccc2nc(NC(=O)c3cc4ccccc4cc3OCCCCN3CCOCC3)sc2c1` [Example 66, methyl 2-{3-[4-(morpholin-4-yl)butoxy]naphthalene-2-amido}-1,3-benzothiazole-6-carboxylate], the fold induction at 5 µM in experiment [1] was 5 to 9.9; in experiment [2], < 2.4. Moreover, in experiment [3] (5 μM compound (**)), the “CXCL10 secretion by CT26 cells” value is on record as “++** (“++” indicates 200-399 pg/mL)”. In experiment [4] (5 μM compound (**)), the “CXCL10 secretion by CT26 RIG-I −/− cells” value was “−** (“−” indicates less than 100 pg/mL)”.

On to `Cn1ccc2cc(OCCN3CCOCC3)c(C(=O)Nc3nc4ccc(S(=O)(=O)N5CCCC5)cc4s3)cc21` [Example 67, 1-methyl-5-[2-(morpholin-4-yl)ethoxy]-N-[6-(pyrrolidine-1-sulfonyl)-1,3-benzothiazol-2-yl]-1H-indole-6-carboxamide], for which the fold induction at 10 µM in experiment [1] is 20 to 39; in experiment [2], < 2.4. Further, in experiment [3] (10 μM compound), the “CXCL10 secretion by CT26 cells” value is given as “++++ (“++++” indicates 800 to 1599 pg/mL)”. Further, the “CXCL10 secretion by CT26 RIG-I −/− cells” value in experiment [4] (10 μM compound) is “− (“−” indicates less than 100 pg/mL)”.

`O=C(Nc1cc2ccc(S(=O)(=O)N3CCCC3)cc2s1)c1ccc(-c2ccccc2)cc1OCCCCN1CCOCC1` [Example 68, 3-[4-(morpholin-4-yl)butoxy]-N-[6-(pyrrolidine-1-sulfonyl)-1-benzothiophen-2-yl]-[1,1′-biphenyl]-4-carboxamide]: the fold induction at 10 µM in experiment [1] is 20 to 39; in experiment [2], < 2.4. The “CXCL10 secretion by CT26 cells” value in experiment [3] (10 μM compound) is “++++ (“++++” indicates 800 to 1599 pg/mL)”. Besides, the “CXCL10 secretion by CT26 RIG-I −/− cells” value in experiment [4] (10 μM compound) is recorded as “− (“−” indicates less than 100 pg/mL)”.

For the molecule `COC(=O)c1ccc2nc(NC(=O)c3cc4ccccc4cc3OCCN3CCOCC3)sc2c1` [Example 69, methyl 2-{3-[2-(morpholin-4-yl)ethoxy]naphthalene-2-amido}-1,3-benzothiazole-6-carboxylate], the fold induction at 5 µM in experiment [1] is 5 to 9.9; in experiment [2] it was < 2.4. The “CXCL10 secretion by CT26 cells” value in experiment [3] (5 μM compound (**)) is listed as “++** (“++” indicates 200-399 pg/mL)”. In experiment [4] (5 μM compound (**)), the “CXCL10 secretion by CT26 RIG-I −/− cells” value is “−** (“−” indicates less than 100 pg/mL)”.

In the case of `O=C(Nc1cc2ccc(S(=O)(=O)N3CCCC3)cc2s1)c1cc2ccccc2cc1OCCCCN1CCOCC1` [Example 70, 3-[4-(morpholin-4-yl)butoxy]-N-[6-(pyrrolidine-1-sulfonyl)-1-benzothiophen-2-yl]naphthalene-2-carboxamide], the fold induction at 10 µM in experiment [1] was 10 to 19; in experiment [2], < 2.4. Further, the “CXCL10 secretion by CT26 cells” value in experiment [3] (10 μM compound) is “+++ (“+++” indicates 400-799 pg/mL)”. The “CXCL10 secretion by CT26 RIG-I −/− cells” value in experiment [4] (10 μM compound) was “− (“−” indicates less than 100 pg/mL)”.

As to `O=C(Nc1cc2ccc(S(=O)(=O)N3CCCC3)cc2s1)c1ccc(-c2ccccc2)cc1OCCN1CCOCC1` [Example 71, 3-[2-(morpholin-4-yl)ethoxy]-N-[6-(pyrrolidine-1-sulfonyl)-1-benzothiophen-2-yl]-[1,1′-biphenyl]-4-carboxamide], the fold induction at 10 µM in experiment [1] and in experiment [2] was < 2.4 in each case. For the same molecule, the “CXCL10 secretion by CT26 cells” value in experiment [3] (10 μM compound) is recorded as “− (“−” indicates less than 100 pg/mL)”. Moreover, in experiment [4] (10 μM compound), the “CXCL10 secretion by CT26 RIG-I −/− cells” value is reported as “− (“−” indicates less than 100 pg/mL)”.

Take `O=C(Nc1cc2ccc(S(=O)(=O)N3CCCC3)cc2s1)c1cc2ccsc2cc1OCCCCN1CCOCC1` [Example 72, 6-[4-(morpholin-4-yl)butoxy]-N-[6-(pyrrolidine-1-sulfonyl)-1-benzothiophen-2-yl]-1-benzothiophene-5-carboxamide]: the fold induction at 10 µM was 20 to 39 in experiment [1] and < 2.4 in experiment [2]. Also, in experiment [3] (10 μM compound), the “CXCL10 secretion by CT26 cells” value is reported as “++++ (“++++” indicates 800 to 1599 pg/mL)”. In addition, the “CXCL10 secretion by CT26 RIG-I −/− cells” value in experiment [4] (10 μM compound) was “− (“−” indicates less than 100 pg/mL)”.

For the molecule `O=C(Nc1cc2ccc(S(=O)(=O)N3CCCC3)cc2s1)c1cc2c(cc1OCCCCN1CCOCC1)OCO2` [Example 73, 6-[4-(morpholin-4-yl)butoxy]-N-[6-(pyrrolidine-1-sulfonyl)-1-benzothiophen-2-yl]-2H-1,3-benzodioxole-5-carboxamide], the results for the fold induction at 10 µM in experiment [1] and in experiment [2] were 20 to 39 and < 2.4, respectively. Also, the “CXCL10 secretion by CT26 cells” value in experiment [3] (10 μM compound) is on record as “++++ (“++++” indicates 800 to 1599 pg/mL)”. In addition, in experiment [4] (10 μM compound), the “CXCL10 secretion by CT26 RIG-I −/− cells” value is reported as “− (“−” indicates less than 100 pg/mL)”.

`O=C(Nc1cc2ccc(S(=O)(=O)N3CCCC3)cc2s1)c1cc2ccccc2cc1OCCN1CCOCC1` [Example 74, 3-[2-(morpholin-4-yl)ethoxy]-N-[6-(pyrrolidine-1-sulfonyl)-1-benzothiophen-2-yl]naphthalene-2-carboxamide]: the fold induction at 10 µM is 10 to 19 in experiment [1] and < 2.4 in experiment [2]. For the same molecule, in experiment [3] (10 μM compound), the “CXCL10 secretion by CT26 cells” value is “+++ (“+++” indicates 400-799 pg/mL)”. Moreover, the “CXCL10 secretion by CT26 RIG-I −/− cells” value in experiment [4] (10 μM compound) is “− (“−” indicates less than 100 pg/mL)”.

On to `O=C(Nc1cc2ccc(S(=O)(=O)N3CCCC3)cc2s1)c1cc2c(cc1OCCN1CCOCC1)OCO2` [Example 75], for which the fold induction at 10 µM in experiment [1] is 5 to 9.9; in experiment [2] it was < 2.4. For the same molecule, the “CXCL10 secretion by CT26 cells” value in experiment [3] (10 μM compound) is on record as “++ (“++” indicates 200-399 pg/mL)”. Further, the “CXCL10 secretion by CT26 RIG-I −/− cells” value in experiment [4] (10 μM compound) is listed as “− (“−” indicates less than 100 pg/mL)”.

Take `O=C(Nc1cc2ccc(S(=O)(=O)N3CCCC3)cc2s1)c1cc2ccsc2cc1OCCN1CCOCC1` [Example 76, 6-[2-(morpholin-4-yl)ethoxy]-N-[6-(pyrrolidine-1-sulfonyl)-1-benzothiophen-2-yl]-1-benzothiophene-5-carboxamide]: the values for the fold induction at 10 µM in experiment [1] and in experiment [2] were 20 to 39 and < 2.4, respectively. For the same molecule, the “CXCL10 secretion by CT26 cells” value in experiment [3] (10 μM compound) is “++++ (“++++” indicates 800 to 1599 pg/mL)”. Moreover, the “CXCL10 secretion by CT26 RIG-I −/− cells” value in experiment [4] (10 μM compound) is recorded as “− (“−” indicates less than 100 pg/mL)”.

On to `O=C(Nc1nc2ccc(S(=O)(=O)N3CC[C@@H](O)C3)cc2s1)c1cc2ccccc2cc1OCCN1CCOCC1` [Example 77, N-(6-{[(3R)-3-hydroxypyrrolidin-1-yl]sulfonyl}-1,3-benzothiazol-2-yl)-3-[2-(morpholin-4-yl)ethoxy]naphthalene-2-carboxamide], for which the fold induction at 10 µM was 2.4 to 4.9 in experiment [1] and < 2.4 in experiment [2]. Also, the “CXCL10 secretion by CT26 cells” value in experiment [3] (10 μM compound) was “+ (“+” indicates 100-199 pg/mL)”. For the same molecule, the “CXCL10 secretion by CT26 RIG-I −/− cells” value in experiment [4] (10 μM compound) is listed as “− (“−” indicates less than 100 pg/mL)”.

Consider `O=C(Nc1nc2ccc(S(=O)(=O)N3CC[C@@H](O)C3)cc2s1)c1cc2ccccc2cc1OCCCCN1CCOCC1` [Example 78, N-(6-{[(3R)-3-hydroxypyrrolidin-1-yl]sulfonyl}-1,3-benzothiazol-2-yl)-3-[4-(morpholin-4-yl)butoxy]naphthalene-2-carboxamide], for which, in experiment [1], the fold induction at 10 µM is ≥ 40. In addition, in experiment [2], the fold induction at 5 µM is < 2.4. Besides, the “CXCL10 secretion by CT26 cells” value in experiment [3] (10 μM compound) is listed as “+++++ (“+++++” indicates greater than or equal to 1600 pg/ml)”. In addition, in experiment [4] (10 μM compound), the “CXCL10 secretion by CT26 RIG-I −/− cells” value is recorded as “− (“−” indicates less than 100 pg/mL)”.

In the case of `O=C(Nc1nc2ccc(S(=O)(=O)N3CCCC3)cc2s1)c1cc2ccccc2cc1OCCCCN1CCC(F)(F)CC1` [Example 80, 3-[4-(4,4-difluoropiperidin-1-yl)butoxy]-N-[6-(pyrrolidine-1-sulfonyl)-1,3-benzothiazol-2-yl]naphthalene-2-carboxamide], the fold induction at 10 µM was 20 to 39 in experiment [1] and < 2.4 in experiment [2]. The “CXCL10 secretion by CT26 cells” value in experiment [3] (10 μM compound) is given as “++++ (“++++” indicates 800 to 1599 pg/mL)”. The “CXCL10 secretion by CT26 RIG-I −/− cells” value in experiment [4] (10 μM compound) was “− (“−” indicates less than 100 pg/mL)”.

In the case of `O=C(Nc1cc2ccc(S(=O)(=O)N3CCCC3)cc2s1)c1ccc(-c2ccccc2)cc1` [Example 81, N-[6-(pyrrolidine-1-sulfonyl)-1-benzothiophen-2-yl]-[1,1′-biphenyl]-4-carboxamide], the fold induction at 10 µM in experiment [1] is 20 to 39; in experiment [2], < 2.4. Besides, the “CXCL10 secretion by CT26 cells” value in experiment [3] (10 μM compound) is given as “++++ (“++++” indicates 800 to 1599 pg/mL)”. Also, the “CXCL10 secretion by CT26 RIG-I −/− cells” value in experiment [4] (10 μM compound) is listed as “− (“−” indicates less than 100 pg/mL)”.

Regarding `O=C(Nc1nc2ccc(S(=O)(=O)N3CCCC3)cc2s1)c1sc2ccccc2c1OCCN1CCOCC1` [Example 84, 3-[2-(morpholin-4-yl)ethoxy]-N-[6-(pyrrolidine-1-sulfonyl)-1,3-benzothiazol-2-yl]-1-benzothiophene-2-carboxamide], the fold induction at 10 µM in experiment [1] is 5 to 9.9; in experiment [2], < 2.4. For the same molecule, the “CXCL10 secretion by CT26 cells” value in experiment [3] (10 μM compound) was “++ (“++” indicates 200-399 pg/mL)”. Also, the “CXCL10 secretion by CT26 RIG-I −/− cells” value in experiment [4] (10 μM compound) is recorded as “− (“−” indicates less than 100 pg/mL)”.
